Measurements reported in patent publication US20190167676A1, “METHODS FOR IMPROVING RESISTANCE TO SKELETAL MUSCLE FATIGUE” (Cytokinetics, Inc., priority 2012, published 2019).

Tests used:
healthy rats = assay: Rotarod running assay; format: in vivo, rat; settings: control treatments by oral gavage: 300 mg/kg (60 min), caffeine 10 mg/kg (30 min), phosphoserine 1000 mg/kg (24 hours prior)
Experimental: Female Sprague Dawley rats (210-260 g) were obtained from Charles River Laboratories and acclimated in the test facility for a minimum of six days prior to the start of the study. All rats were trained the day prior to compound administration. Training consisted of placing the rats on the rotating drum (rod), starting at a low constant speed (10 RPM). The rats were acclimated to walk on the drum for 5 minutes before resting. A second training session of an increasing speed from 14-16 RPM was initiated after all rats in the experimental group had finished the first training session. […] On the day of the experiment animals were dosed thirty minutes prior to start of test. The test began with a 5 minute primer session, whereby animals were run at an increasing speed from 14-16 RPM over 5 minutes. Rats were then run at a constantly accelerating rate from 12 RPM to 25 RPM over the course of 10 minutes. […] Time to fall was recorded, with the test being terminated at 900 seconds. Compound A was administered via oral gavage 30 minutes prior to assessment. Each dose was formulated as a suspension containing 0.2% Tween 80, 0.5% HPMC and water. Dose volume was 5 mL/kg. Vehicle (0.2% Tween 80, 0.5% HPMC and water) was administered similarly. Control treatments were chosen based on association with amelioration of central fatigue (caffeine, Davis 2003), muscular fatigue (creatine, Boyadjiev, 2007) and dual central/muscular fatigue (phosphoserine, […] 1976).

[1] = Plasma levels at end of rotarod experiment; format: in vivo, rat; settings: end of experiment (not at Cmax)
Experimental: The effect of the fast skeletal muscle troponin activator 1-(2-(((trans)-3-fluoro-1-(3-fluoropyridin-2-yl)cyclobutyl)methylamino)pyrimidin-5-yl)-1H-pyrrole-3-carboxamide (Compound C) on muscle fatigue in healthy rats was determined by a rotarod running time test. […] On the day of the assessment, the animals began by running at an increasing speed from 14-16 RPM over 5 minutes. Rats were then run at a constantly accelerating rate from 12 RPM to 25 RPM over the course of 10 minutes. Time to fall was recorded, with the test being terminated at 600 seconds. The plasma levels were determined at the end of the experiments (not at Cmax). The plasma levels for the indicated doses were determined to be the following: […]

LAD-HF rats = assay: Fatiguing rotarod in rat heart failure model; format: in vivo
Excerpt: To determine the effect of Compound C on skeletal muscle function in patients with heart failure, a rat heart failure model was used. Female Sprague Dawley rats (<250 g) were obtained from Charles River Laboratories having the left anterior descending coronary artery ligated prior to shipping (LAD-HF rats). Sham operated controls were also obtained from the same surgical preparation (sham controls). All rats underwent assessment of cardiac function after a three day acclimation to provide baseline levels. Animals were assessed on weeks 4, 7 and 10 to observe the progress of exercise intolerance at least 3 days after echocardiography. Exercise performance was assessed using the fatiguing rotarod protocol described in Example 11 (5 minute run ramping from 14-16 RPM, followed by run time assessment during a 10 minute ramp from 12 to 25 RPM). LAD-HF rats were selected based on a left ventricular fractional shortening <25% and reduced run time compared to sham controls. […] Decreases in fractional shortening (determined by echocardiography) were apparent.
Animals were assigned in a cross-over fashion whereby half of the animals received Compound C (10 mg/kg PO) and half received vehicle (19.3%PEG: 80% (15%) captisol, pH3, 0.2% tween, 0.5% HPMC) via oral gavage 30 minutes prior to rotarod assessment on Day 1 and then the opposite treatment on Day 2.

[2] = test system: extensor digitorum longus (EDL) muscles; assay: In situ EDL force-frequency in sham and LAD-HF rats; format: in vivo, rat; settings: 3 mg/kg IV, sham and LAD-HF groups
Experimental: An in situ assessment of selected animals from Example 12 was run at the end of the study to assess functional characteristics of extensor digitorum longus (EDL) muscles in Sham and LAD animals. Effects with and without Compound C (3 mg/kg IV) were assessed.
Rats were placed under anesthesia and the skin around the experimental leg was removed. The distal end of the extensor digitorum longus (EDL) muscle and its associated tendon were then isolated. The rat was then placed on the platform of an Aurora in situ muscle analysis rig wherein the knee was immobilized and the distal tendon cut and tied to the arm of a force transducer. The muscle was stimulated directly via steel needle electrodes contacting the peroneal nerve. Muscle contractile properties were assessed by applying an electrical current to the nerve and recording the force generated by the muscle via a servomotor. The muscle length was adjusted to produce the maximum isometric force (Lo) after sub-maximal stimulation (30 Hz, 1 ms pulses, 350 ms train duration). Once Lo had been established, the nerve was stimulated every 2 minutes with a 30 Hz train (1 ms stimuli, 350 ms duration) for the course of the experiment.
Once the preparation was stable, a force frequency relationship was assessed, then Compound C (3 mg/kg IV) or vehicle was injected and a second force frequency was assessed. […]

sham and HF EDL fibers = assay: Skinned EDL fiber force-Ca2+ relationship; set-up: species or system rat; settings: 3 μM, sham and HF EDL muscle
Experimental: (§1) Muscle tissue for in vitro skinned fiber studies were prepared using an adapted protocol based on Lynch and Faulkner (Am J Physiol 275:C1548-54 (1998)). Briefly, rat muscle from sham and HF animals were rapidly dissected, rinsed in physiological saline, and then incubated in skinning solution (125 mM K-propionate, 20 mM imidazole, 5 mM EGTA, 2 mM MgCl2, 2 mM ATP, pH 7.0) supplemented with 0.5% TritonX-100 (Sigma Chemicals, St. Louis, Mo.) for 30 minutes at 4° C. The buffer was then changed to a storage solution (125 mM K-propionate, 20 mM imidazole, 5 mM EGTA, 2 mM MgCl2, 2 mM ATP, glycerol 50%, pH 7.0) and stored at −20° C. for later use.
(§2) For skinned fiber analysis, single muscle fibers were dissected from larger segments of tissue in rigor buffer at 4° C. ([…], pH 7.0). They were then suspended between a 400 A force transducer (Aurora Scientific, Ontario, Canada) and a fixed post and secured with 2-4 μl of a 5% solution of methylcellulose in acetone. […] Tension was generated in each fiber by changing fiber buffer over to relax buffer supplemented with 1 mM EGTA and a 15 mM solution of calcium chloride and calculated using the web resource (www.stanford.edu/˜cpatton/webmaxc/webmaxcS.htm). […]

[3] = test system: sham and LAD-HF diaphragm fibers; assay: Skinned diaphragm fiber Ca2+ sensitivity; set-up: species or system rat; settings: 3 μM
Experimental: as §1, §2

[4] = test system: sham and LAD-HF diaphragm strips; assay: Diaphragm force-frequency by electrical field stimulation in organ bath; set-up: species or system rat; settings: 30 μM, sham and LAD-HF diaphragms, submaximal frequencies of electrical stimulation
Experimental: Diaphragm contractile force was measured by electrical field stimulation in an organ bath system based on a standard operating protocol adapted from the Treat NMD website (http://www.treat-nmd.eu/downloads/file/sops/dmd/MDX/DMD M.1.2.002.pdf). The diaphragm and the last floating rib from sham and HF animals were excised, rinsed in physiological saline, and placed in a temperature controlled water-jacketed chamber (26-27° C.) containing Krebs-Henseleit Buffer (118 mM NaCl, 10 mM glucose, 4.6 mM KCl, 1.2 mM KH2PO4, 1.2 mM MgSO4*7 H2O, 24.8 mM NaHCO3, 2.5 mM CaCl2, 50 mg/L tubocurarine, 50 U/L insulin, pH:7.4) that was continuously aerated with 95% O2/[…]. After 10 minutes of equilibration, vertical strips spanning the floating rib to the central tendon were cut from diaphragms. Braided silk sutures were tied at the central tendon and floating rib and attached to a force transducer between two platinum electrodes. Diaphragm strips were set to a length that produced maximum twitch tension (Lo). The force-frequency profile of the muscle was obtained by stimulating the muscle at frequencies between 10-150 Hz (Grass Stimulator, 800 ms train duration, 0.6 ms pulse width). Compound C was suspended in DMSO and directly added into the bath.

mouse EDL muscle = settings: cited from earlier work
[5] = test system: rat plantarflexor muscles; assay: Rat plantar flexor force and power in situ; format: in vivo
Excerpt: Rats were placed under anesthesia using isoflurane and the sciatic nerve of the experimental leg exposed. The rat was then placed on the platform of an Aurora in-situ muscle analysis rig (806C), maintained at body temperature via a circulating water system. The knee was immobilized in a clamp between two sharpened screws and the foot attached securely to the footplate of a force transducer (Aurora Scientific, Ontario, Canada) using laboratory tape. The muscle was stimulated directly via the sciatic nerve. For isolation of the nerve, a 1 cm incision was made at the upper thigh and the overlying muscle was dissected to expose an approximate 5 mm stretch of the sciatic nerve. This was then dissected free of surrounding connective tissue and a pair of stainless steel needle electrodes (0.10 mm) were hooked around the exposed nerve. The peroneal branch was severed to remove innervation to the plantar-extensor muscle groups. Muscle contractile properties were assessed by applying an electrical current to the nerve and recording the force generated by the muscle via a servomotor. Isokinetic contractile properties were assessed as force generated during a pre-programmed movement of the footplate. Footplate movements were 0.7 radians in size ([…]).
Solutions of Compound A (50% PEG300/10% EtOH/40% cavitron formulation) were administered via a femoral vein catheter as a single slow bolus over a 2 min period, with a maximal dosage volume of 5 ml/Kg. During the experiment, blood was drawn via the tail vein for compound concentration analysis. At the end of each assay, the length and weight of the muscle was recorded, and measured force normalized to the mass of the muscle (N/g).
Compound A increased force generation throughout the curve to generate a total of 55% more work over the 300 second period, while maintaining a similar profile to that of the vehicle.
The same protocol was repeated with a second skeletal muscle troponin activator, 1-((1R)-1-methylpropyl)-6-chloro-7-pyrazolylimidazo[4,5-b]pyridin-2-ol (Compound B). Compound B and analogous skeletal muscle troponin activators are disclosed in U.S. Pat. No. 7,989,469. […] 0.7 radian displacement and stimulation frequency calculated to provide 50% of maximum isokinetic tension. Compound B maintained force generation throughout the curve, at almost 50% of vehicle stimulation frequency, to generate the same total work over the 300 second period, while maintaining a similar profile to that of the vehicle.

## N[C@@H](COP(=O)(O)O)C(=O)O [phosphoserne, phosphoserine, reference compound]
Healthy rats
  running time vs vehicle: no significant difference

## NC(=O)c1ccn(-c2cnc(NCC3(c4ncccc4F)CC(F)C3)nc2)c1 (stereo not drawn) [Compound C, 1-(2-(((trans)-3-fluoro-1-(3-fluoropyridin-2-yl)cyclobutyl)methylamino)pyrimidin-5-yl)-1H-pyrrole-3-carboxamide]
[1]; 0.01 mg/kg
  [Plasma]: 0.003 µM
[1]; 0.03 mg/kg
  [Plasma]: 0.007 µM
[1]; 0.1 mg/kg
  [Plasma]: 0.024 µM
[1]; 0.3 mg/kg
  [Plasma]: 0.083 µM
[1]; 1 mg/kg
  [Plasma]: 0.204 µM
[1]; 3 mg/kg
  [Plasma]: 0.478 µM
[1]; 10 mg/kg
  [Plasma]: 1.95 µM
[1]; 30 mg/kg
  [Plasma]: 3.64 µM
[1]; 100 mg/kg
  [Plasma]: 28.0 µM
LAD-HF rats; 10 mg/kg PO
  increase of rotarod running time compared to vehicle treatment: approximately 2.5 fold
LAD-HF rats; 10 mg/kg PO 30 minutes prior, vehicle 111±32
  rotarod running time (mean±S.E.): 277 ± 32 s
[2]
  response to low frequency stimulation: increased response to low frequency stimulation in both groups
Sham and HF EDL fibers
  force-Ca2+ relationship: leftward shift in the force-Ca^2+ relationship
[3]
  Ca2+ sensitivity: significantly increased Ca^2+ sensitivity
[4]
  diaphragm force: significantly increased force

## CN(CC(=O)O)C(=N)N [creatine, reference compound]
Healthy rats
  running time vs vehicle: no significant difference

## O=C1CN(/N=C/c2ccc(-c3ccc([N+](=O)[O-])cc3)o2)C(O)=N1 [dantrolene]
Mouse EDL muscle; 20 μM
  tetanic tension and fatigue development: decreased early tetanic tension yet abolished overall fatigue development

## Cn1c(=O)c2c(ncn2C)n(C)c1=O [caffeine, reference compound]
Healthy rats
  running time vs vehicle: no significant difference
Mouse EDL muscle; repeated 60 Hz stimulation over 6 minutes
  tetanic tension and muscle fatigue: increased initial tetanic EDL tension but accelerated and accentuated muscle fatigue

## 1-((1R)-1-methylpropyl)-6-chloro-7-pyrazolylimidazo[4,5-b]pyridin-2-ol [Compound B]
[5]; at 3.1 radians/s
  isokinetic force frequency relationship: increased in the submaximal range in a dose dependent manner
[5]; at 30 Hz
  force-velocity relationship: increased across all velocities in a dose and velocity dependent manner
[5]; corresponding to force velocities at 30 Hz
  power output: dose-dependent increase
[5]; in situ
  isometric force frequency relationship: increased in the submaximal range in a dose dependent manner
[5]; isokinetic fatigue protocol at 50% of maximum isokinetic tension, 300 second period
  stimulation frequency to generate the same total work: ~50 % of vehicle stimulation frequency
[5]; isokinetic fatigue protocol, 1 flexion per second at 3.1 radians/s, 30 Hz, vs vehicle
  more total work over the 300 second period: 105%
